Measurements published in ChEMBL document CHEMBL1201862, “PubChem BioAssay data set” (2004).
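Cells were grown in 96-well plates and exposed to each compound for 48 hours at five concentrations; endpoints were interpolated linearly between bracketing concentrations, or set to the highest concentration if not reached. GI50 = concentration required for 50% inhibition of growth.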 Activity calls are given as the source filed them. Rule as the data show it: active = GI50 up to about 1.1 µM and inactive = higher.

Assays:
Assay in all cases: NCI-60 cell line screen, 48 h
[1] = test system: U-251
[2] = test system: OVCAR-5
[3] = test system: HT-29
[4] = test system: HOP-62
[5] = test system: HCT-116
[6] = test system: UO-31
[7] = test system: DMS-114
[8] = test system: LOX IMVI
[9] = test system: HCC 2998
[10] = test system: SNB-75
[11] = test system: SR
[12] = test system: NCI-H23
[13] = test system: CAKI-1
[14] = test system: SK-MEL-5
[15] = test system: COLO 205
[16] = test system: M14
[17] = test system: M19-MEL
[18] = test system: SF-295
[19] = test system: OVCAR-3
[20] = test system: OVCAR-4
[21] = test system: SW-620
[22] = test system: CCRF-CEM
[23] = test system: SK-OV-3
[24] = test system: SK-MEL-2
[25] = test system: SNB-19
[26] = test system: EKVX
[27] = test system: 786-0
[28] = test system: SN12C
[29] = test system: SF-268
[30] = test system: DLD-1
[31] = test system: LXFL 529
[32] = test system: KM12
[33] = test system: Malme-3M
[34] = test system: SF-539
[35] = test system: KM-20L2
[36] = test system: OVCAR-8
[37] = test system: DMS-273
[38] = test system: UACC-62
[39] = test system: TK-10
[40] = test system: NCI-H226
[41] = test system: NCI-H460
[42] = test system: SNB-78
[43] = test system: RXF 393
[44] = test system: XF498
[45] = test system: MOLT-4
[46] = test system: HOP-92
[47] = test system: A549
[48] = test system: K562
[49] = test system: NCI-H522
[50] = test system: SK-MEL-28
[51] = test system: ACHN
[52] = test system: IGROV-1
[53] = test system: RPMI-8226
[54] = test system: HCT-15
[55] = test system: UACC-257

O=c1c2cccnc2ncn1CCN1CCCCC1
GI50 [1]: > 100 µM (inactive)
GI50 [2]: > 100 µM (inactive)
GI50 [3]: > 100 µM (inactive)
GI50 [4]: > 100 µM (inactive)
GI50 [5]: > 100 µM (inactive)
GI50 [6]: > 100 µM (inactive)
GI50 [7]: > 100 µM (inactive)
GI50 [8]: > 100 µM (inactive)
GI50 [9]: > 100 µM (inactive)
GI50 [10]: > 100 µM (inactive)
GI50 [11]: > 100 µM (inactive)
GI50 [12]: > 100 µM (inactive)
GI50 [13]: > 100 µM (inactive)
GI50 [14]: > 100 µM (inactive)
GI50 [15]: > 100 µM (inactive)
GI50 [16]: > 100 µM (inactive)
GI50 [17]: > 100 µM (inactive)
GI50 [18]: > 100 µM (inactive)
GI50 [19]: > 100 µM (inactive)
GI50 [20]: > 100 µM (inactive)
GI50 [21]: > 100 µM (inactive)
GI50 [22]: > 100 µM (inactive)
GI50 [23]: > 100 µM (inactive)
GI50 [24]: > 100 µM (inactive)
GI50 [25]: > 100 µM (inactive)
GI50 [26]: > 100 µM (inactive)
GI50 [27]: > 100 µM (inactive)
GI50 [28]: > 100 µM (inactive)
GI50 [29]: > 100 µM (inactive)
GI50 [30]: > 100 µM (inactive)
GI50 [31]: > 100 µM (inactive)
GI50 [32]: > 100 µM (inactive)
GI50 [33]: > 100 µM (inactive)
GI50 [34]: > 100 µM (inactive)
GI50 [35]: > 100 µM (inactive)
GI50 [36]: > 100 µM (inactive)
GI50 [37]: > 100 µM (inactive)
GI50 [38]: > 100 µM (inactive)
GI50 [39]: > 100 µM (inactive)
GI50 [40]: > 100 µM (inactive)
GI50 [41]: > 100 µM (inactive)
GI50 [42]: > 100 µM (inactive)
GI50 [43]: > 100 µM (inactive)
GI50 [44]: > 100 µM (inactive)
GI50 [45]: > 100 µM (inactive)
GI50 [46]: > 100 µM (inactive)
GI50 [47]: > 100 µM (inactive)
GI50 [48]: > 100 µM (inactive)
GI50 [49]: > 100 µM (inactive)
GI50 [50]: > 100 µM (inactive)
GI50 [51]: > 100 µM (inactive)
GI50 [52]: > 100 µM (inactive)

CCOC(=O)C(Cc1ccc2ccccc2c1)(Cc1ccc2ccccc2c1)C(C)=O
GI50 [1]: > 10 µM (inactive)
GI50 [4]: 7.53 µM (inactive)
GI50 [8]: > 10 µM (inactive)
GI50 [9]: 3.02 µM (inactive)
GI50 [15]: > 10 µM (inactive)
GI50 [16]: > 10 µM (inactive)
GI50 [17]: > 10 µM (inactive)
GI50 [20]: 8.67 µM (inactive)
GI50 [21]: > 10 µM (inactive)
GI50 [22]: 5.13 µM (inactive)
GI50 [53]: 1.86 µM (inactive)
GI50 [23]: > 10 µM (inactive)
GI50 [27]: 4.92 µM (inactive)
GI50 [54]: 8.47 µM
GI50 [28]: > 10 µM (inactive)
GI50 [30]: 2.69 µM (inactive)
GI50 [31]: 4.47 µM (inactive)
GI50 [33]: 3.28 µM (inactive)
GI50 [35]: > 10 µM (inactive)
GI50 [37]: 5.38 µM (inactive)
GI50 [38]: > 10 µM (inactive)
GI50 [41]: 7.31 µM (inactive)
GI50 [42]: > 10 µM (inactive)
GI50 [44]: 3.39 µM (inactive)
GI50 [45]: 0.635 µM (active)
GI50 [46]: 5.41 µM (inactive)
GI50 [47]: 3.78 µM (inactive)
GI50 [48]: 1.67 µM (inactive)
GI50 [51]: > 10 µM (inactive)
GI50 [52]: > 10 µM (inactive)

COc1cccc(/C=C2\C(=O)N(C(=O)c3ccc(NC(C)=O)cc3)N=C2C)c1
GI50 [1]: > 100 µM (inactive)
GI50 [2]: > 100 µM (inactive)
GI50 [3]: > 100 µM (inactive)
GI50 [4]: > 100 µM (inactive)
GI50 [5]: > 100 µM (inactive)
GI50 [6]: > 100 µM (inactive)
GI50 [7]: > 100 µM (inactive)
GI50 [8]: > 100 µM (inactive)
GI50 [9]: > 100 µM (inactive)
GI50 [10]: > 100 µM (inactive)
GI50 [12]: > 100 µM (inactive)
GI50 [13]: > 100 µM (inactive)
GI50 [14]: 56.1 µM (inactive)
GI50 [15]: > 100 µM (inactive)
GI50 [16]: > 100 µM (inactive)
GI50 [17]: > 100 µM (inactive)
GI50 [18]: > 100 µM (inactive)
GI50 [19]: > 100 µM (inactive)
GI50 [20]: > 100 µM (inactive)
GI50 [21]: > 100 µM (inactive)
GI50 [22]: > 100 µM (inactive)
GI50 [24]: > 100 µM (inactive)
GI50 [25]: > 100 µM (inactive)
GI50 [26]: > 100 µM (inactive)
GI50 [27]: > 100 µM (inactive)
GI50 [54]: > 100 µM
GI50 [28]: > 100 µM (inactive)
GI50 [29]: > 100 µM (inactive)
GI50 [55]: > 100 µM (inactive)
GI50 [30]: > 100 µM (inactive)
GI50 [33]: > 100 µM (inactive)
GI50 [34]: > 100 µM (inactive)
GI50 [36]: > 100 µM (inactive)
GI50 [37]: > 100 µM (inactive)
GI50 [39]: > 100 µM (inactive)
GI50 [40]: > 100 µM (inactive)
GI50 [41]: > 100 µM (inactive)
GI50 [42]: > 100 µM (inactive)
GI50 [44]: > 100 µM (inactive)
GI50 [45]: > 100 µM (inactive)
GI50 [47]: > 100 µM (inactive)
GI50 [48]: > 100 µM (inactive)
GI50 [49]: > 100 µM (inactive)
GI50 [50]: > 100 µM (inactive)
GI50 [51]: > 100 µM (inactive)
